Assay results: patent US20180213779A1, “PESTICIDALLY ACTIVE HETEROCYCLIC DERIVATIVES WITH SULPHUR CONTAINING SUBSTITUENTS” (SYNGENTA PARTICIPATIONS AG, priority 2015, published 2018)

Legend:
[1] = system: Spodoptera littoralis (Egyptian Cotton Leaf Worm); assay: Example B4: Activity against Spodoptera littoralis (sprayed cotton leaf discs); type: in vivo; settings: foliar, 72 h, application rate of 200 ppm, L1 larvae, 3 days after infestation
Experimental: Example B4: Activity Against Spodoptera littoralis (Egyptian Cotton Leaf Worm)
Cotton leaf discs were placed on agar in 24-well microtiter plates and sprayed with aqueous test solutions prepared from 10′000 ppm DMSO stock solutions. After drying the leaf discs were infested with five L1 larvae. The samples were assessed for mortality, anti-feedant effect, and growth inhibition in comparison to untreated samples 3 days after infestation. Control of Spodoptera littoralis by a test sample is given when at least one of the categories mortality, anti-feedant effect, and growth inhibition is higher than the untreated sample.

[2] = system: Diabrotica balteata (Corn Root Worm); assay: Example B6: Activity against Diabrotica balteata (sprayed maize sprouts); type: in vivo; settings: 96 h, application rate of 200 ppm, L2 larvae, 4 days after infestation, read-out: effect in at least one of the two categories (mortality or growth inhibition)
Experimental: Example B6: Activity Against Diabrotica Balteata (Corn Root Worm)
Maize sprouts placed onto an agar layer in 24-well microtiter plates were treated with aqueous test solutions prepared from 10′000 ppm DMSO stock solutions by spraying. After drying, the plates were infested with L2 larvae (6 to 10 per well). The samples were assessed for mortality and growth inhibition in comparison to untreated samples 4 days after infestation.

[3] = system: Plutella xylostella (Diamond-Back Moth); assay: Example B3: Plutella xylostella larvicide, feeding/contact activity, preventative (artificial diet, 96-well); type: in vivo; settings: 216 h, application rate of 500 ppm, mortality assessed 9 days after treatment
Experimental: Example B3: Plutella xylostella (Diamond-Back Moth) larvicide, feeding/contact activity, preventative Artificial diet was dispensed into a 96-well microtiter plate and treated with aqueous test solutions prepared from 10′000 ppm DMSO stock solutions. Eggs were suspended above the treated diet and first instar larvae hatched onto the diet. Mortality was assessed 9 days after treatment.

[4] = system: Plutella xylostella (Diamond Back Moth); assay: Example B11: Activity against Plutella xylostella (artificial diet, 24-well, L2 larvae); type: in vivo; settings: 120 h, application rate of 200 ppm, 5 days after infestation, read-out: effect in at least one of the two categories (mortality or growth inhibition)
Experimental: Example B11: Activity Against Plutella xylostella (Diamond Back Moth)
24-well microtiter plates with artificial diet were treated with aqueous test solutions prepared from 10′000 ppm DMSO stock solutions by pipetting. After drying, the plates were infested with L2 larvae (10 to 15 per well). The samples were assessed for mortality and growth inhibition in comparison to untreated samples 5 days after infestation.

[5] = system: Myzus persicae (Green Peach Aphid); assay: Example B8: Activity against Myzus persicae (sprayed sunflower leaf discs); type: in vivo; settings: foliar, 144 h, application rate of 200 ppm, mixed ages, 6 days after infestation
Experimental: Example B8: Activity Against Myzus persicae (Green Peach Aphid)
Sunflower leaf discs were placed onto agar in a 24-well microtiter plate and sprayed with aqueous test solutions prepared from 10′000 ppm DMSO stock solutions. After drying, the leaf discs were infested with an aphid population of mixed ages. The samples were assessed for mortality 6 days after infestation.

[6] = system: Euschistus heros (Neotropical Brown Stink Bug); assay: Example B7: Activity against Euschistus heros (sprayed soybean leaves); type: in vivo; settings: 120 h, application rate of 200 ppm, N2 nymphs, 5 days after infestation, read-out: effect in at least one of the two categories (mortality or growth inhibition)
Experimental: Example B7: Activity Against Euschistus heros (Neotropical Brown Stink Bug)
Soybean leaves on agar in 24-well microtiter plates were sprayed with aqueous test solutions prepared from 10′000 ppm DMSO stock solutions. After drying the leaves were infested with N2 nymphs. The samples were assessed for mortality and growth inhibition in comparison to untreated samples 5 days after infestation.

[7] = system: Spodoptera littoralis (Egyptian Cotton Leaf Worm); assay: Example B5: Activity against Spodoptera littoralis (systemic, lettuce grown on treated agar); type: in vivo; settings: 144 h, test rate of 12.5 ppm, 6 days after infestation, uptake by lettuce roots, read-out: effect in at least one of the three categories (mortality, anti-feeding, or growth inhibition)
From the text: Example B5: Activity Against Spodoptera littoralis (Egyptian Cotton Leaf Worm)
Test compounds were applied by pipette from 10′000 ppm DMSO stock solutions into 24-well plates and mixed with agar. Lettuce seeds were placed onto the agar and the multi well plate was closed by another plate which contained also agar. After 7 days the compound was absorbed by the roots and the lettuce grew into the lid plate. The lettuce leaves were then cut off into the lid plate. Spodoptera eggs were pipetted through a plastic stencil onto a humid gel blotting paper and the lid plate was closed with it. The samples were assessed for mortality, anti-feedant effect and growth inhibition in comparison to untreated samples 6 days after infestation.

[8] = system: Myzus persicae (Green Peach Aphid); assay: Example B9: Activity against Myzus persicae (roots of pea seedlings in test solutions); type: in vivo; settings: 144 h, test rate of 24 ppm, mixed ages, 6 days after placing seedlings into test solutions
Experimental: Example B9: Activity Against Myzus persicae (Green Peach Aphid)
Roots of pea seedlings infested with an aphid population of mixed ages were placed directly into aqueous test solutions prepared from 10′000 DMSO stock solutions. The samples were assessed for mortality 6 days after placing seedlings into test solutions.

Row | SMILES | melting point [°C] | effect (mortality or growth inhibition) at 200 ppm [2] [%] | pest or weed control at 500 ppm [3] [%] | other results
1 | CCS(=O)(=O)c1cc(C(F)(F)F)cnc1-c1cn(-c2ccc(C(F)(F)F)cc2)nn1 [Compound P2, 3-(ethylsulfonyl)-5-(trifluoromethyl)-2-(1-(4-(trifluoromethyl)phenyl)-1H-1,2,3-triazol-4-yl)pyridine] | 212 to 213 |  |  | 
2 | CCS(=O)(=O)c1cc(C(F)(F)F)cnc1-c1nnc(-c2ccc(C(F)(F)F)cc2)o1 [Compound P3] |  |  |  | percent control (mortality, anti-feedant effect or growth inhibition) at 200 ppm [1]: ≥ 80%
3 | CCS(=O)(=O)c1cc(C(F)(F)F)cnc1-c1nnc(-c2cc(C(F)(F)F)ccn2)o1 [Compound P5, 2-[3-ethylsulfonyl-5-(trifluoromethyl)-2-pyridyl]-5-[4-(trifluoromethyl)-2-pyridyl]-1,3,4-oxadiazole] |  | ≥ 80 |  | 
4 | CCS(=O)(=O)c1cc(C(F)(F)F)ccc1-c1nnc(-c2ccc(C(F)(F)F)nc2)o1 [Compound P7] |  |  | ≥ 70 | 
5 | CCS(=O)(=O)c1cc(C(F)(F)F)cnc1-c1noc(-c2ccc(C(F)(F)F)cc2)c1C [Compound P8] |  |  | ≥ 70 | 
6 | CCSc1cc(C(F)(F)F)cnc1-c1cc(-c2ccc(C(F)(F)F)cc2)on1 [Compound P11, 3-(3-ethylsulfanyl-5-(trifluoromethyl)pyridin-2-yl)-5-(4-(trifluoromethyl)phenyl)-isoxazole] | 145 to 146 |  |  | 
7 | CCS(=O)(=O)c1cc(-c2ccc(Cl)cc2)cnc1-c1cn(-c2cccc(C(F)(F)F)c2)nn1 [Compound P13, 5-(4-chlorophenyl)-3-ethylsulfonyl-2-[1-[3-(trifluoromethyl)phenyl]triazol-4-yl]pyridine] |  | ≥ 80 | ≥ 70 | percent effect (mortality or growth inhibition) at 200 ppm [4]: ≥ 80%; percent control (mortality, anti-feedant effect or growth inhibition) at 200 ppm [1]: ≥ 80%
8 | CCSc1cccnc1-c1cn(-c2cccc(C(F)(F)F)c2)nn1 [Compound P14] |  | ≥ 80 | ≥ 70 | mortality at 200 ppm [5]: ≥ 80%; percent effect (mortality or growth inhibition) at 200 ppm [6]: ≥ 80%; percent effect (mortality or growth inhibition) at 200 ppm [4]: ≥ 80%
9 | CCS(=O)(=O)c1cccnc1-c1cn(-c2cccc(C(F)(F)F)c2)nn1 [Compound P15] |  | ≥ 80 | ≥ 70 | percent effect (mortality, anti-feeding or growth inhibition) at 12.5 ppm [7]: ≥ 80%; mortality at 200 ppm [5]: ≥ 80%; percent effect (mortality or growth inhibition) at 200 ppm [6]: ≥ 80%; percent effect (mortality or growth inhibition) at 200 ppm [4]: ≥ 80%; percent control (mortality, anti-feedant effect or growth inhibition) at 200 ppm [1]: ≥ 80%
10 | CCSc1cccnc1-c1cn(-c2ccc(C(F)(F)F)cc2)nn1 [Compound P16, 3-ethylsulfanyl-2-[1-[4-(trifluoromethyl)phenyl]triazol-4-yl]pyridine] |  |  | ≥ 70 | percent effect (mortality or growth inhibition) at 200 ppm [4]: ≥ 80%
11 | CCS(=O)(=O)c1cccnc1-c1cn(-c2ccc(C(F)(F)F)cc2)nn1 [Compound P17, 3-ethylsulfonyl-2-[1-[4-(trifluoromethyl)phenyl]triazol-4-yl]pyridine] |  | ≥ 80 | ≥ 70 | percent effect (mortality or growth inhibition) at 200 ppm [6]: ≥ 80%; percent effect (mortality or growth inhibition) at 200 ppm [4]: ≥ 80%; percent control (mortality, anti-feedant effect or growth inhibition) at 200 ppm [1]: ≥ 80%
12 | CCS(=O)(=O)c1cccnc1-c1cn(-c2cncc(C(F)(F)F)c2)nn1 [Compound P20] |  | ≥ 80 | ≥ 70 | percent effect (mortality, anti-feeding or growth inhibition) at 12.5 ppm [7]: ≥ 80%; mortality at 200 ppm [5]: ≥ 80%; percent effect (mortality or growth inhibition) at 200 ppm [4]: ≥ 80%; percent control (mortality, anti-feedant effect or growth inhibition) at 200 ppm [1]: ≥ 80%; mortality at 24 ppm [8]: ≥ 80%
13 | CCSc1cc(C(F)(F)F)cnc1-c1cn(-c2cncc(C(F)(F)F)c2)nn1 [Compound P21] |  | ≥ 80 | ≥ 70 | 
14 | CCS(=O)(=O)c1cc(C(F)(F)F)cnc1-c1cn(-c2ccc(C(F)(F)F)nc2)nn1 [Compound P22] |  | ≥ 80 | ≥ 70 | percent effect (mortality or growth inhibition) at 200 ppm [4]: ≥ 80%; percent control (mortality, anti-feedant effect or growth inhibition) at 200 ppm [1]: ≥ 80%
15 | CCS(=O)(=O)c1cc(C(F)(F)F)cnc1-c1cn(-c2cncc(C(F)(F)F)c2)nn1 [Compound P23] |  | ≥ 80 | ≥ 70 | percent effect (mortality, anti-feeding or growth inhibition) at 12.5 ppm [7]: ≥ 80%; percent control (mortality, anti-feedant effect or growth inhibition) at 200 ppm [1]: ≥ 80%
16 | CCSc1cccnc1-c1cn(-c2ccc(C(F)(F)F)nc2)nn1 [Compound P24] |  | ≥ 80 | ≥ 70 | 
17 | CCS(=O)(=O)c1cccnc1-c1cn(-c2ccc(C(F)(F)F)nc2)nn1 [Compound P25] |  | ≥ 80 | ≥ 70 | percent effect (mortality or growth inhibition) at 200 ppm [6]: ≥ 80%; percent effect (mortality or growth inhibition) at 200 ppm [4]: ≥ 80%; mortality at 24 ppm [8]: ≥ 80%
18 | CCSc1ccc(Cl)nc1-c1cc(-c2cc(C(F)(F)F)ccn2)n(C)n1 [Compound P28] | 138 to 140 |  |  | 
19 | CCS(=O)(=O)c1ccc(Cl)nc1-c1cc(-c2cc(C(F)(F)F)ccn2)n(C)n1 [Compound P29] | 255 to 257 |  |  | 
20 | CCS(=O)(=O)c1cccnc1-c1cc(-c2cc(C(F)(F)F)ccn2)n(C)n1 [Compound P30] | 171 to 173 |  |  | 
21 | CCS(=O)(=O)c1ccc(-n2cncn2)nc1-c1cc(-c2cc(C(F)(F)F)ccn2)n(C)n1 [Compound P31] | 238 to 240 |  |  | 
22 | CCSc1ccc(Cl)nc1-c1cc(-c2ccc(C(F)(F)F)nc2)n(C)n1 [Compound P32, 6-chloro-3-ethylsulfanyl-2-[1-methyl-5-[6-(trifluoromethyl)-3-pyridyl]pyrazol-3-yl]pyridine] | 136 to 138 |  |  | 
23 | CCS(=O)(=O)c1ccc(Cl)nc1-c1cc(-c2ccc(C(F)(F)F)nc2)n(C)n1 [Compound P33, 6-chloro-3-ethylsulfonyl-2-[1-methyl-5-[6-(trifluoromethyl)-3-pyridyl]pyrazol-3-yl]pyridine] | 198 to 200 |  |  | 
24 | CCS(=O)(=O)c1cccnc1-c1cc(-c2ccc(C(F)(F)F)nc2)n(C)n1 [Compound P34, 3-ethylsulfonyl-2-[1-methyl-5-[6-(trifluoromethyl)-3-pyridyl]pyrazol-3-yl]pyridine] | 160 to 162 |  |  | 
25 | CCS(=O)(=O)c1ccc(-n2cncn2)nc1-c1cc(-c2ccc(C(F)(F)F)nc2)n(C)n1 [Compound P35, 3-ethylsulfonyl-2-[1-methyl-5-[6-(trifluoromethyl)-3-pyridyl]pyrazol-3-yl]-6-(1,2,4-triazol-1-yl)pyridine] | 175 to 177 |  |  | 
26 | CCSc1ccc(Cl)nc1-c1cc(-c2cncc(C(F)(F)F)c2)n(C)n1 [Compound P36] | 125 to 126 |  |  | 
27 | CCS(=O)(=O)c1ccc(Cl)nc1-c1cc(-c2cncc(C(F)(F)F)c2)n(C)n1 [Compound P37] | 152 to 153 |  |  | 
28 | CCS(=O)(=O)c1ccc(-n2cncn2)nc1-c1cc(-c2cncc(C(F)(F)F)c2)n(C)n1 [Compound P39] | 235 to 237 |  |  | 
